Test results: paper PMC7979488 (ChemMedChem, 2020)
Where two headings read alike, the source gives them in different places.

Experiments:
SARS-CoV-2 [1] = type: cell-based
SARS-CoV-2 [2] = type: cell-based; details: A549/ACE2 cells
[3] = Vero E6 cells, tested range 80 nM to 10 μM, two repeats

In the case of `O=C[C@H](C[C@@H]1CCNC1=O)NC(=O)[C@H](CC1CCCCC1)NC(=O)c1cc2ccccc2[nH]1` [11a, reference compound], the “concentration at which SARS-CoV-2-induced CPE was completely abolished” value (SARS-CoV-2 [1]; [3]) is reported as 10 µM.
`O=C[C@H](C[C@@H]1CCNC1=O)NC(=O)[C@H](Cc1ccccc1)NC(=O)/C=C/c1ccc(Cl)cc1F` [MPI2] was tested, and the “concentration at which SARS-CoV-2-induced CPE was completely abolished” value (SARS-CoV-2 [1]; [3]) was 10 µM.
For `CC(C)C[C@H](NC(=O)[C@@H](NC(=O)OCc1ccccc1)C(C)C)C(=O)N[C@H](C=O)C[C@@H]1CCNC1=O` [MPI3], the “complete prevention of CPE (in words)” value (SARS-CoV-2 [1]; Vero E6 cells, tested range 80 nM to 10 μM) was “not able to completely prevent CPE at all tested concentrations”.
`CC(C)[C@H](NC(=O)OCc1ccccc1)C(=O)N[C@@H](CC1CCCCC1)C(=O)N[C@H](C=O)C[C@@H]1CCNC1=O` [MPI5] was tested, and the “concentration at which SARS-CoV-2-induced CPE was completely abolished” value (SARS-CoV-2 [1]; [3]) was 5 µM, the “concentration for complete prevention of SARS-CoV-2-induced CPE” value (SARS-CoV-2 [2]; as stated in abstract) was 0.16 to 0.31 µM and the “concentration for complete abolition of CPE” value (SARS-CoV-2 [2]; tested range 80 nM to 10 μM) was 160 to 310 nM.
`CC(OC(C)(C)C)[C@H](NC(=O)OCc1ccccc1)C(=O)N[C@@H](Cc1ccccc1)C(=O)N[C@H](C=O)C[C@@H]1CCNC1=O` (stereo partly drawn) [MPI7] was tested, and the “concentration at which SARS-CoV-2-induced CPE was completely abolished” value (SARS-CoV-2 [1]; [3]) was 2.5 to 5 µM and the “complete abolition of CPE / potency (in words)” value (SARS-CoV-2 [2]; tested range 80 nM to 10 μM) was “not able to completely abolish CPE at all tested conditions”.
GC376 [reference compound] was tested, and the “concentration at which SARS-CoV-2-induced CPE was completely abolished” value (SARS-CoV-2 [1]) was 10 µM.
